Measured values as given in US7300770B2, “Detection of microbe contamination on elastomeric articles” (Kimberly-Clark Worldwide, Inc., priority 2004, dated 2007).

Key:
[1] = tested on: juice from the aged chicken (high bacterial levels); experiment: Isopropanol dye spray on doorknob marked with aged chicken juice; conditions: 160 mg dye in 10 mL isopropanol, sprayed
From the text: Plastic doorknobs were utilized as a “real world” surface on which to test bacterial contamination. A raw chicken leg was initially aged at room temperature for several days to ensure high bacterial levels (referred to hereinafter as “aged chicken”). Juice from the aged chicken was then used to mark the surface of one of the knobs. The other door knob was left uncontaminated as a control. Both knobs were wiped. […] The isopropanol solution of the dye was sprayed on both surfaces.

[2] = tested on: aged, pooled female urine; experiment: Bacterial quantification of aged pooled female urine by dye titration; conditions: 100 microliters urine
From the text: Table 2 presents the volume of each dye solution required for the dye color to remain steady.

[3] = tested on: S. aureus; experiment: Titration of microorganisms with Reichardt's dye on cellulosic towel; parameters: species or system Staphylococcus aureus; conditions: Gram(+), 10^7 CFU/mL, 100 microliters
[4] = tested on: E. coli; experiment: as above; parameters: species or system Escherichia coli; conditions: Gram(-), 10^7 CFU/mL, 100 microliters
[5] = Color change of dye with bacterial cell-wall compounds on paper towel; parameters: species or system E. coli; Streptococcus faecalis; conditions: detoxified LPS, lipoteichoic acid
[6] = tested on: aged chicken juice known to have a high bacterial count; experiment: Dye coating with or without TWEEN 80 on ceramic surface exposed to aged chicken juice; conditions: coating with TWEEN 80 surfactant; 80 mg/10 mL acetonitrile
From the text: This solution was then used to coat a ceramic surface and allowed to air dry. […] After drying, a drop of aged chicken juice known to have a high bacterial count was placed on the each coating area. […] Furthermore, the addition of TWEEN® surfactant allowed for easy removal of the dye from the surface.

[7] = tested on: E. coli; experiment: Cyclodextrin and Reichardt's dye coated towel exposed to E. coli
Procedure: A SCOTT® paper towel was first coated with hydroxypropyl-beta-cyclodextrin (from Cerestar International, Hammond, Ind., USA) in solution in water (1 gram in 20 milliliters) by dipping and air-drying at ambient temperature. After drying, the coated paper towel was treated with a solution of Reichardt's dye in isopropanol (1 weight percent) and allowed to air-dry. The dried towel was a purple/blue in color. The present inventors believe that the cyclodextrin hindered the crystallization of the dye, thus allowing a more vivid color of the dye to occur on the paper towel. This coated towel was used in a test with gram-negative bacteria (E. coli) and found to turn colorless in less than 5 seconds when an aliquot of 100 microliters of media containing 10,000 CFU per milliliter was applied to the towel. […] The inventors believe that by careful use of a coating (e.g. cyclodextrin), a monolayer coating of the dye may be formed.

[8] = tested on: E. coli; experiment: Reichardt's dye and TMB coated towel exposed to E. coli suspension; conditions: towel coated with Reichardt's dye and TMB
[9] = tested on: Polio virus type 1; conditions: virus diluted serially in media; 50 microliters, 3 minutes
[10] = tested on: Rhinovirus; experiment: Virus detection on Reichardt's dye-coated stickers; conditions: virus diluted serially in saline; 50 microliters, 3 minutes
[11] = tested on: Herpes Simplex Virus 1 (HSV-1); experiment: Virus detection on Reichardt's dye-coated stickers; conditions: undiluted virus, 50 microliters, 3 minutes
[12] = tested on: vaccinia; conditions: undiluted virus, 50 microliters, 3 minutes
[13] = tested on: measles; experiment: Virus detection on Reichardt's dye-coated stickers; conditions: undiluted virus, 50 microliters, 3 minutes
[14] = tested on: Polio virus
[15] = tested on: Rhinovirus
[16] = tested on: S. aureus; experiment: Visual quantification of S. aureus on dye-treated paper, with blind study
Procedure: The color differences at lower concentrations were less distinct, particularly for the brush-coated sheet. A blind study was then conducted. […] Concentrations of these three drops were unknown to two of the experiment participants. After approximately 2 minutes, the drops were removed and blotted. Using the control regions, the concentrations of each sample were each visually estimated by these two persons. Both persons correctly estimated the concentration of the first sample to be 10^6 CFU/mL. […] The persons, however, incorrectly estimated the third sample to be 10^3 CFU/mL. […] The present inventors believe, however, that the concentration of the chromogen and uniformity of the coating may be readily selected to achieve accurate results at such low concentrations.

[17] = Acid-base reversibility of dye color on towel
[18] = Reichardt's dye and TMB coated towel exposed to dilute bleach; conditions: towel coated with mixture of Reichardt's dye and TMB
[19] = tested on: aged chicken juice; experiment: Comparative dyes dropped onto aged chicken juice on paper towel; conditions: aged chicken juice on SCOTT paper towel
[20] = tested on: L. acidophilus; experiment: Titration of microorganisms with Reichardt's dye on cellulosic towel; conditions: Lactobacillus, Gram(+), 10^7 CFU/mL, 100 microliters; 160 mg/10 mL acetonitrile
[21] = tested on: G. vaginalis; experiment: as above; conditions: Gram(-), 10^7 CFU/mL, 100 microliters
[22] = tested on: P. aeruginosa; experiment: as above; conditions: Gram(-), 10^7 CFU/mL, 100 microliters
[23] = tested on: C. albicans; experiment: as above; conditions: yeast, 10^7 CFU/mL, 100 microliters
[24] = tested on: A. niger; experiment: as above; conditions: mold, 10^5
[25] = Color change of dye with bacterial cell-wall compounds on paper towel; conditions: both experimental set-ups; 160 mg/10 mL acetonitrile
[26] = tested on: aged raw chicken juice; experiment: Dye spray on aged raw chicken juice pattern and re-colorization with 1 N NaOH
[27] = 100 microliters undiluted virus, 80 mg/10 mL acetonitrile with or without TWEEN 80
[28] = surfactant- and non-surfactant-containing solutions

SMILES: [O-]c1c(-c2ccccc2)cc(-[n+]2c(-c3ccccc3)cc(-c3ccccc3)cc2-c2ccccc2)cc1-c1ccccc1 [Reichardt's dye, 4-(2,4,6-triphenylpyridinium-1-yl)-2,6-diphenylphenolate]
- Color change at contaminated area of doorknob [1]: blue to colorless
- Volume of dye solution required for the dye color to remain steady ([2]; 4 mg/ml dye solution in acetonitrile): 120 µL
- Volume of dye solution required for the dye color to remain steady ([2]; 16 mg/ml dye solution in acetonitrile): 30 µL
- Amount of Dye Required for Persistent Color [3]: 90 µL
- Amount of Dye Required for Persistent Color [4]: 80 µL
- Color change of dye with the other cell-wall compounds [5]: eventual color change
- Time to color change [6]: 20 to 30 s
- Time to turn colorless ([7]; 100 microliters of media containing 10,000 CFU per milliliter): less than 5 seconds
- Time to color change ([7]; 500 CFU per milliliter): ≤ 15 s
- Bacteria concentration down to which color change occurred ([7]; hydroxypropyl-beta-cyclodextrin coated towel): 500 CFU per milliliter
- Time to change color to a white spot [8]: less than 10 seconds
- Ten-fold dilution down to which stickers changed color [9]: 10^−6
- Ten-fold dilution down to which stickers changed color [10]: 10^−6
- De-colorization of sticker [11]: stronger de-colorization of the sticker than that observed for Rhinovirus and Polio virus
- De-colorization of sticker [12]: less than that observed for the other viruses
- De-colorization of sticker [13]: less than that observed for the other viruses
- Dye added until the color persisted [14, 27]: approximately 9 drops
- Discharge of dye color on virus spot [14, 28]: rapidly discharged
- Dye added until the color persisted [15, 27]: approximately 9 drops
- Discharge of dye color on virus spot [15, 28]: rapidly discharged
- S. aureus concentration giving obvious color change ([16]; Neenah Bond paper, 80 mg/10 mL acetonitrile, about 2 minutes): ≥ 10^5 CFU/mL
- Visually estimated concentration in blind study ([16]; first sample, actual 10^6 CFU/mL, dip-coated sheet): 10^6 CFU/mL
- Visually estimated concentration in blind study ([16]; second sample, actual 10^5 CFU/mL, brush-coated sheet): 10^5 CFU/mL
- Visually estimated concentration in blind study ([16]; third sample, actual 10^4 CFU/mL, dip-coated sheet): 10^3 CFU/mL
- Effect of 1 N NaOH on the changed spots ([17]; after acetic acid or pH 2.0 buffer): rapid re-colorization
- Color change with acetic acid and pH 2.0 buffer ([17]; dried dye spots on towel): rapid color change
- Color response to dilute bleach solution [18]: de-colorizing
- Color change on dropping dye onto aged chicken juice [19]: immediately changed color
- Amount of Dye Required for Persistent Color [20]: 110 µL
- Amount of Dye Required for Persistent Color [21]: 90 µL
- Amount of Dye Required for Persistent Color [22]: 80 µL
- Amount of Dye Required for Persistent Color [23]: 70 µL
- Amount of Dye Required for Persistent Color [24]: 50 µL
- Color change of dye with muramic acid [25]: near instantaneous color change
- Effect of 1 N NaOH on area that changed color ([26]; drop of 1 N NaOH): re-colorization of that small spot
- Color change with aged chicken juice pre-mixed with 1 molar NaOH ([26]; equal proportions, 30 seconds): rapid color change
